Earlier results in patent US6949582B1, “Method of relieving analgesia and reducing inflamation using a cannabinoid delivery topical liniment” (priority 1999, dated 2005).

Columns and labels:
[1] = mice, given orally
[2] = rat hind-paw edema from carrageenan or PGE-1
[3] = system: interleukin, TNF, cytokine-induced genes; details: carrageenan-induced edema, up-regulation of cytokine-induced genes
[4] = system: human rheumatoid synovial cells
[5] = live rats, carriers PEG, Transcutol, PG:EtOH 7:3
[6] = system: cytokines such as TNFα; details: in vivo
[7] = system: CB2; details: by down-modulating mast cell formation after injury
[8] = system: peripheral CB1-like and CB2-like receptors; details: in vivo
[9] = system: mast-cell activation
[10] = target: T1, peripheral CB1 receptor (Rattus norvegicus, UniProt P20272)
T1 construct: host or cells: rat, peripheral tissue (hindpaw) in vivo
T1 sequence (P20272 whole entry): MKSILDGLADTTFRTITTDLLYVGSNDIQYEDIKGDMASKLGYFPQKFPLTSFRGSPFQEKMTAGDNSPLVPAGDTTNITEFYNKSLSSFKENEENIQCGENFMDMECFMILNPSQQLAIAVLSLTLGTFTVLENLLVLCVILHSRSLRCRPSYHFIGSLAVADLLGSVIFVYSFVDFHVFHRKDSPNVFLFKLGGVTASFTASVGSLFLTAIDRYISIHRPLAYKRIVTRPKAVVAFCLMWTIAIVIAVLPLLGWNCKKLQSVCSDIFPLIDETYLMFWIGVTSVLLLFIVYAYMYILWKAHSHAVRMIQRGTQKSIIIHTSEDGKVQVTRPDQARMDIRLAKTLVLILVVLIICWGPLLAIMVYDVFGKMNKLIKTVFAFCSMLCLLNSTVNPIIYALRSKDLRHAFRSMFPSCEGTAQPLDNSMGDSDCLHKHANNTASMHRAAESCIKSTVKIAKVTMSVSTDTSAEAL

[11] = system: calcitonin gene-related peptide release; details: isolated hindpaw skin
[12] = in vivo
[13] = system: cell culture model
[14] = system: prostaglandin biosynthesis
[15] = peripheral, but not systemic, administration of 0.01 ng

## CCCCCCC(C)(C)c1cc(O)c2c(c1)OC(C)(C)[C@@H]1CC=C(C(=O)O)C[C@@H]21
[1]
  acute and chronic inflammatory changes: supresses acute and chronic inflammatory changes

## CC1=CCC2CC1C2(C)C (stereo not drawn) [Alpha-pinene]
[2]
  anti-inflammatory activity: demonstrate anti-inflammatory activity

## O=c1cc(-c2ccc(O)cc2)oc2cc(O)cc(O)c12 [Apigenin]
[3]
  anti-inflammatory actions: important anti-inflammatory actions

## COc1cc(-c2cc(=O)c3c(O)c(C/C=C(\C)CCC=C(C)C)c(O)cc3o2)ccc1O [Cannflavin A]
[4]
  potency of inhibition of prostaglandin E-2 production relative to aspirin: 30 times

## COc1cc(-c2cc(=O)c3c(O)c(CC=C(C)C)c(O)cc3o2)ccc1O [Cannflavin B]
[4]
  potency of inhibition of prostaglandin E-2 production relative to aspirin: 30 times

## CCCCCc1cc(O)c2c(c1)OC(C)(C)[C@@H]1CC=C(C)C[C@@H]21 [Delta-8 THC]
[5]; after 2 hrs
  skin penetration by carrier: highest skin penetration of THC was observed from the Transcutol
[5]; after 24 hours
  concentration in skin layers by carrier: the Transcutol system delivered the highest THC concentration to the various layers of the skin

## CCCCCCC(C)(C)c1cc(O)c2c(c1)OC(C)(C)[C@H]1CC=C(CO)C[C@H]21 [HU-211]
[6]
  inflammation caused by mobilization of cytokines such as TNFα: supress inflammation

## CCCCCCCCCCCCCCCC(=O)NCCO [Palmitoylethanolamide, palmitylethanolamide]
[7]
  carageenan-induced mechanical hyperalgesia and edema: attenuates
[8]
  pain behavior produced by chemical damage to cutaneous tissue: exerts a similar effect
[9]
  mast-cell activation and inflammatory responses: inhibits mast-cell activation and reduces inflammatory responses

## Cc1c(C(=O)NN2CCCCC2)nn(-c2ccc(Cl)cc2Cl)c1-c1ccc(Cl)cc1 [SR141716A]
[8]
  pain behavior produced by chemical damage to cutaneous tissue: prolong and enhance the pain behavior

## CCCCC/C=C\C/C=C\C/C=C\C/C=C\CCCC(=O)NCCO [anandamide, arachidonyl-ethanolamide]
[10]; peripheral administration, reversed by CB1 antagonist SR 141716A
  hyperalgesia after its development: attenuated hyperalgesia
[10]; [15]
  edema: inhibited edema
  induction of hyperalgesia: inhibited the induction of hyperalgesia
[11]
  capsaicin-evoked release of calcitonin gene-related peptide: inhibited
[8]
  pain behavior produced by chemical damage to cutaneous tissue: attenuates the pain behavior

## C=C(C)[C@@H]1CCC(C)=C[C@H]1c1c(O)cc(CCCCC)cc1O [cannabidiol]
[12]
  reduction of inflammation compared with aspirin: more effective than aspirin
[13]
  neuroprotective properties compared with other antioxidants: matched or surpassed other antioxidants

## CCCCCc1cc(O)c2c(c1)OC(C)(C)[C@@H]1CCC(C)=C[C@@H]21 [delta-9-tetrahydrocannabinol]
Double blind controlled cross over study
  analgesic effects compared with codeine: analgesic effects equivalent to codeine
Patients with cancer pain, second study
  analgesia: significant analgesia

## C=CCc1ccc(O)c(OC)c1 [eugenol]
[14]
  prostaglandin inhibition: potent

## SR144528
[8]
  pain behavior produced by chemical damage to cutaneous tissue: prolong and enhance the pain behavior

## caryophyllene
[2]
  anti-inflammatory activity: demonstrate anti-inflammatory activity
